Reference: patent US20260109707A1, “HETEROBIFUNCTIONAL COMPOUNDS AND METHODS OF TREATING DISEASE” (Halda Therapeutics OpCo. Inc., priority 2022, published 2026)
Where two headings read alike, the source gives them in different places.

Assays:
[1] = system: T-Rex 293 cell line SC3 cells having increased expression of androgen receptor protein due to exposure to doxycycline; assay: Cellular growth inhibition assay, T-Rex 293 SC3 cells with doxycycline (CellTiter-Glo, 72 hours); assay type: cell-based; conditions: T-Rex 293 SC3 cells with increased androgen receptor expression due to doxycycline (10 ng/mL)
Method in brief: (§1)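 Growth inhibition is measured in an inducible AR-expressing T-Rex 293 clone, SC3, cultured with or without 10 ng/mL doxycycline in hormone-depleted medium. Test compounds are applied for 72 hours. GI50 values derive from CellTiter-Glo 2.0 signal fitted by four-parameter regression.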

[2] = system: T-Rex 293 cell line SC3 cells lacking increased expression of androgen receptor protein; assay: Cellular growth inhibition assay, T-Rex 293 SC3 cells without doxycycline (CellTiter-Glo, 72 hours); assay type: cell-based; conditions: T-Rex 293 cell line SC3 cells not exposed to doxycycline (lacking increased androgen receptor expression)
Method in brief: as §1

VCaP cells = assay: Cellular growth inhibition assay for VCaP cells (CellTiter-Glo, 72 hours); assay type: cell-based, human
Method in brief: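 Luminescent viability signal after 72 h of compound exposure gave GI50 values by four-parameter nonlinear regression. Compounds were added in 0.5% DMSO to cells plated 24 h earlier at 5000/well in DMEM containing 10% FBS.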

T47D cells = assay: Cellular growth inhibition assay for T47D cells (CellTiter-Glo, 72 hours); assay type: cell-based, human; conditions: 72 hours treatment
Protocol: T47D cells were purchased from American Type Cell Culture (ATCC Cat #HTB-133) and then seeded on poly-D-lysine coated, black clear-bottom 384-well plates at 3000/well in 25 μL Dulbecco's Modified Eagle Medium (DMEM) supplemented with 10% w/w Fetal bovine serum (FBS), 0.2 units/mL recombinant human insulin (Gibco Cat #12585014), and 1% w/w Pen-Strep. Pen-Strep is a commercially available mixture of penicillin G and streptomycin, which is used in mammalian cell culture media to prevent bacterial contamination. Dulbecco's Modified Eagle Medium (DMEM) supplemented with 10% w/w fetal bovine serum (FBS), 0.2 units/mL recombinant human insulin, and 1% w/w Pen-Strep is herein referred to as Treatment Medium. Following seeding of cells in the plates, the plates were spun at 300×g for 30 seconds, then equilibrated to room temperature for 30 minutes, and then deposited in a humidified tissue culture incubator maintained at 37° C. with 5% CO2.
At 24 hours after seeding of the cells, dilutions of test compound were prepared in DMSO and dissolved in Treatment Medium, to achieve a final DMSO concentration of 0.5% w/w, thereby providing the Test Compound Solution. A 25 μL aliquot of the Test Compound Solution was added to cells in the well plates. An equal volume of a solution containing DMSO and Treatment Medium was used as a negative control. Following treatment of cells with Test Compound Solution or said equal volume of a solution containing DMSO and Treatment Medium, the plates were spun at 300×g for 30 seconds, and then left in an incubator for 72 hours.
At the end of the treatment duration, cell viability was quantified with CellTiter-Glo 2.0 reagent (Promega Cat #G9243). For this purpose, plates were equilibrated to room temperature for 30 minutes, and then 25 μL of CellTiter-Glo 2.0 reagent was added to cells in the plate wells. Plates were then agitated on a shaker for two minutes at 500 rpm and subsequently incubated at room temperature for 10 minutes. Following incubation, the plates were spun at 3000×g for 30 seconds, then sealed with an optical adhesive cover, and luminescence readings were measured with an EnVision Plate Reader (Perkin Elmer).
Data was normalized using zero luminescence for baseline. A four-parameter non-linear regression curve fit was applied to dose-response data in GraphPad Prism data analysis software to determine the half-maximal growth inhibitory concentration (GI50) for each test compound.

| Structure (SMILES) | GI50 (VCaP cells; Homo sapiens, VCaP, 72 h) [nM] | GI50 (T47D cells; Homo sapiens, T47D, 72 h) [nM] | GI50 ([1]; 72 h) [nM] | GI50 ([2]; 72 h) [nM] | other results |
| --- | --- | --- | --- | --- | --- |
| CCNC(=O)C[C@@H]1N=C(c2ccc(N(C)CC3CN(c4ccc(C(=O)N[C@H]5CC[C@H](Oc6ccc(C#N)c(Cl)c6)CC5)nn4)C3)cc2)c2c(sc(C)c2C)-n2c(C)nnc21 [I-30] | < 500 | 500 to 1500 | < 500 | 500 to 1500 |  |
| CCNC(=O)C[C@@H]1N=C(c2ccc(CCC3CN(c4ccc(C(=O)N[C@H]5CC[C@H](Oc6ccc(C#N)c(Cl)c6)CC5)nn4)C3)cc2)c2c(sc(C)c2C)-n2c(C)nnc21 [I-31] | < 500 | 500 to 1500 | < 500 | 500 to 1500 |  |
| CCNC(=O)C[C@@H]1N=C(c2ccc(CN3CC4CN(c5ccc(C(=O)N[C@H]6CC[C@H](Oc7ccc(C#N)c(Cl)c7)CC6)nn5)CC4C3)cc2)c2c(sc(C)c2C)-n2c(C)nnc21 (stereo partly drawn) [I-32] | < 500 | 500 to 1500 | < 500 | 1500 to 3000 |  |
| CCNC(=O)C[C@@H]1N=C(c2ccc(CCCC3CCN(c4ccc(C(=O)N[C@H]5CC[C@H](Oc6ccc(C#N)c(Cl)c6)CC5)nn4)CC3)cc2)c2c(sc(C)c2C)-n2c(C)nnc21 [I-33] | < 500 | 500 to 1500 |  | 500 to 1500 |  |
| CCNC(=O)C[C@@H]1N=C(c2ccc(N(C)CCC3CCN(c4ccc(C(=O)N[C@H]5CC[C@H](Oc6ccc(C#N)c(Cl)c6)CC5)nn4)CC3)cc2)c2c(sc(C)c2C)-n2c(C)nnc21 [I-34] | 500 to 1500 | 500 to 1500 | < 500 | 500 to 1500 |  |
| Cc1sc2c(c1C)C(c1ccc(C[C@@H]3CC[C@@]4(C3)CN(c3ccc(C(=O)N[C@H]5CC[C@H](Oc6ccc(C#N)c(Cl)c6)CC5)nn3)CCO4)cc1)=N[C@@H](Cc1ncco1)c1nnc(C)n1-2 [I-265] |  |  |  |  | GI50 (VCaP cells): 1500 to 3000 nM; GI50 (T47D cells): > 3000 nM |
| Cc1sc2c(c1C)C(c1ccc(NCC(=O)N3CCC(c4ccc(C(=O)N[C@H]5CC[C@H](Oc6ccc(C#N)c(Cl)c6)CC5)nn4)CC3)cc1)=N[C@@H](Cc1ncco1)c1nnc(C)n1-2 [I-268] | > 3000 | 500 to 1500 |  |  |  |
| Cc1sc2c(c1C)C(c1ccc(CN(C)C(=O)CCc3ccc(C(=O)N[C@H]4CC[C@H](Oc5ccc(C#N)c(Cl)c5)CC4)nn3)cc1)=N[C@@H](Cc1ncco1)c1nnc(C)n1-2 [I-273] | < 500 | 500 to 1500 |  |  |  |
| Cc1sc2c(c1C)C(c1ccc(C#CC3CC4(C3)CN(c3ccc(C(=O)N[C@H]5CC[C@H](Oc6ccc(C#N)c(Cl)c6)CC5)nn3)C4)cn1)=N[C@@H](Cc1ncco1)c1nnc(C)n1-2 [I-280] | < 500 | > 3000 |  |  |  |
| Cc1sc2c(c1C)C(c1ccc(C#CC3CC4(C3)CN(c3ccc(C(=O)N[C@H]5CC[C@H](Oc6ccc(C#N)c(Cl)c6)CC5)nn3)C4)nc1)=N[C@@H](Cc1ncco1)c1nnc(C)n1-2 [I-282] | > 3000 | > 3000 |  |  |  |
| Cc1sc2c(c1C)C(c1ccc(OC[C@H]3C[C@]4(CCCN(c5ccc(C(=O)N[C@H]6CC[C@H](Oc7ccc(C#N)c(Cl)c7)CC6)nn5)C4)C3)cc1)=N[C@@H](C)c1nnc(C)n1-2 [I-309] |  | 500 to 1500 | < 500 | > 3000 |  |
| Cc1sc2c(c1C)C(c1ccc(OC[C@H]3C[C@]4(CCCN(c5ccc(C(=O)N[C@H]6CC[C@H](Oc7ccc(C#N)c(Cl)c7)CC6)nn5)C4)C3)cc1)=N[C@@H](C)c1nnc(C)n1-2 [I-354] | < 500 |  |  |  | GI50 [2]: > 3000 nM; GI50 (T47D cells): 500 to 1500 nM |
| Cc1sc2c(c1C)C(c1ccc(C3CCC4(CC3)CCN(c3ccc(C(=O)N[C@H]5CC[C@H](Oc6ccc(C#N)c(Cl)c6)CC5)nn3)C4)cc1)=N[C@@H](Cc1ncco1)c1nnc(C)n1-2 (stereo partly drawn) [I-824, N-((1r,4r)-4-(3-chloro-4-cyanophenoxy)cyclohexyl)-6-(8-(4-((S)-2,3,9-trimethyl-6-(oxazol-2-ylmethyl)-6H-thieno[3,2-f][1,2,4]triazolo[4,3-a][1,4]diazepin-4-yl)phenyl)-2-azaspiro[4.5]decan-2-yl)pyridazine-3-carboxamide] |  |  |  |  | GI50 [1]: < 500 nM; GI50 [2]: < 500 nM; GI50 (VCaP cells): < 500 nM |
| Cc1sc2c(c1C)C(c1ccc(N3C[C@@]4(C)CN(c5ccc(C(=O)N[C@H]6CC[C@H](Oc7ccc(C#N)c(Cl)c7)CC6)nn5)C[C@@]4(C)C3)cc1)=N[C@@H](Cc1ncco1)c1nnc(C)n1-2 [I-826, 6-[(3aS,6aR)-3a,6a-dimethyl-2-[4-[(9S)-4,5,13-trimethyl-9-(oxazol-2-ylmethyl)-3-thia-1,8,11,12-tetrazatricyclo[8.3.0.02,6]trideca-2(6),4,7,10,12-pentaen-7-yl]phenyl]-1,3,4,6-tetrahydropyrrolo[3,4-c]pyrrol-5-yl]-N-[4-(3-chloro-4-cyano-phenoxy)cyclohexyl]pyridazine-3-carboxamide] | < 500 |  | < 500 | < 500 |  |

Second part, led by results:

| GI50 (VCaP cells; Homo sapiens, VCaP, 72 h) [nM] | GI50 (T47D cells; Homo sapiens, T47D, 72 h) [nM] | Structure (SMILES) | GI50 ([1]; 72 h) [nM] | GI50 ([2]; 72 h) [nM] | other results |
| --- | --- | --- | --- | --- | --- |
| < 500 | < 500 | Cc1sc2c(c1C)C(c1ccc(C[C@H]3CCC4CN(c5ccc(C(=O)N[C@H]6CC[C@H](Oc7ccc(C#N)c(Cl)c7)CC6)nn5)CCN4C3)cc1)=N[C@@H](Cc1ncco1)c1nnc(C)n1-2 (stereo partly drawn) [I-258] |  |  |  |
| < 500 | < 500 | Cc1sc2c(c1C)C(c1ccc(C[C@@H]3CCC4CN(c5ccc(C(=O)N[C@H]6CC[C@H](Oc7ccc(C#N)c(Cl)c7)CC6)nn5)CCN4C3)cc1)=N[C@@H](Cc1ncco1)c1nnc(C)n1-2 (stereo partly drawn) [I-259] |  |  |  |
| 1500 to 3000 | > 3000 | Cc1sc2c(c1C)C(c1ccc(C[C@@H]3CC[C@]4(C3)CN(c3ccc(C(=O)N[C@H]5CC[C@H](Oc6ccc(C#N)c(Cl)c6)CC5)nn3)CCO4)cc1)=N[C@@H](Cc1ncco1)c1nnc(C)n1-2 [I-264] |  |  |  |
| > 3000 | 1500 to 3000 | Cc1sc2c(c1C)C(c1ccc(C(=O)N3CC[C@@]4(CCCN(c5ccc(C(=O)N[C@H]6CC[C@H](Oc7ccc(C#N)c(Cl)c7)CC6)nn5)C4)C3)cc1)=N[C@@H](Cc1ncco1)c1nnc(C)n1-2 [I-269] |  |  |  |
| 500 to 1500 | > 3000 | Cc1sc2c(c1C)C(c1ccc(C(=O)N3CC[C@]4(CCCN(c5ccc(C(=O)N[C@H]6CC[C@H](Oc7ccc(C#N)c(Cl)c7)CC6)nn5)C4)C3)cc1)=N[C@@H](Cc1ncco1)c1nnc(C)n1-2 [I-270] |  |  |  |
| > 3000 | > 3000 | Cc1sc2c(c1C)C(c1ccc(C(=O)N3CC[C@@]4(CCCN(c5ccc(C(=O)N[C@H]6CC[C@H](Oc7ccc(C#N)c(Cl)c7)CC6)nn5)C4)C3)cc1)=N[C@H](Cc1ncco1)c1nnc(C)n1-2 [I-271] |  |  |  |
| > 3000 | > 3000 | Cc1sc2c(c1C)C(c1ccc(C(=O)N3CCC[C@@H](Cc4ccc(C(=O)N[C@H]5CC[C@H](Oc6ccc(C#N)c(Cl)c6)CC5)nn4)C3)cc1)=N[C@@H](Cc1ncco1)c1nnc(C)n1-2 [I-274] |  |  |  |
| < 500 | < 500 | Cc1sc2c(c1C)C(c1ccc(CC3CCC4CN(c5ccc(C(=O)N[C@H]6CC[C@H](Oc7ccc(C#N)c(Cl)c7)CC6)nn5)CCN4C3)cc1)=N[C@@H](Cc1ncco1)c1nnc(C)n1-2 (stereo partly drawn) [I-283] |  |  |  |
| < 500 |  | Cc1sc2c(c1C)C(c1ccc(N3C[C@@H]4CN(c5ccc(C(=O)N[C@H]6CC[C@@H](Oc7ccc(C#N)c(Cl)c7)CC6)nn5)C[C@@H]4C3)cc1)=N[C@@H](Cc1ncco1)c1nnc(C)n1-2 [I-825, 6-[(3aR,6aS)-2-[4-[(9S)-4,5,13-trimethyl-9-(oxazol-2-ylmethyl)-3-thia-1,8,11,12-tetrazatricyclo[8.3.0.02,6]trideca-2(6),4,7,10,12-pentaen-7-yl]phenyl]-1,3,3a,4,6,6a-hexahydropyrrolo[3,4-c]pyrrol-5-yl]-N-[4-(3-chloro-4-cyano-phenoxy)cyclohexyl]pyridazine-3-carboxamide] | < 500 | < 500 |  |
